# Measured values: PubChem BioAssay (NCI)
#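 The compound was tested at five concentrations on cells cultured in 96-well plates, with a 48-hour exposure period. TGI is the concentration that stops growth completely.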
# Legend:
# Experiment in all cases: NCI-60 cell line screen, 48 h
# MALME-3M melanoma = tested on: MALME-3M melanoma
# HCT-15 colon = tested on: HCT-15 colon
# ACHN renal = tested on: ACHN renal
# DMS 273 small cell lung = tested on: DMS 273 small cell lung
# SNB-75 CNS = tested on: SNB-75 CNS
# U251 CNS = tested on: U251 CNS
# RXF-631 renal = tested on: RXF-631 renal
# K-562 leukemia = tested on: K-562 leukemia
# HL-60(TB) leukemia = tested on: HL-60(TB) leukemia
# MOLT-4 leukemia = tested on: MOLT-4 leukemia
# HOP-92 NSCLC = tested on: HOP-92 NSCLC
# HOP-62 NSCLC = tested on: HOP-62 NSCLC
# NCI-H23 lung = tested on: NCI-H23 lung
# SK-OV-3 ovarian = tested on: SK-OV-3 ovarian
# DLD-1 colon = tested on: DLD-1 colon
# HT29 colon = tested on: HT29 colon
# A549 NSCLC = tested on: A549 NSCLC
# NCI-H226 lung = tested on: NCI-H226 lung
# SW-620 colon = tested on: SW-620 colon
# RXF 393 renal = tested on: RXF 393 renal
# COLO 205 colon = tested on: COLO 205 colon
# KM20L2 colon = tested on: KM20L2 colon
# SK-MEL-5 melanoma = tested on: SK-MEL-5 melanoma
# SR leukemia = tested on: SR leukemia
# A498 renal = tested on: A498 renal
# LOX IMVI melanoma = tested on: LOX IMVI melanoma
# SNB-19 CNS = tested on: SNB-19 CNS
# TK-10 renal = tested on: TK-10 renal
# OVCAR-5 ovarian = tested on: OVCAR-5 ovarian
# LXFL 529 NSCLC = tested on: LXFL 529 NSCLC
# HCC-2998 colon = tested on: HCC-2998 colon
# SN12C renal = tested on: SN12C renal
# 786-0 renal = tested on: 786-0 renal
# SK-MEL-28 melanoma = tested on: SK-MEL-28 melanoma
# NCI-H522 lung = tested on: NCI-H522 lung
# OVCAR-8 ovarian = tested on: OVCAR-8 ovarian
# HOP-18 NSCLC = tested on: HOP-18 NSCLC
# M14 melanoma = tested on: M14 melanoma
# UO-31 renal = tested on: UO-31 renal
# EKVX NSCLC = tested on: EKVX NSCLC
# M19-MEL melanoma = tested on: M19-MEL melanoma
# NCI-H460 lung = tested on: NCI-H460 lung
# XF 498 CNS = tested on: XF 498 CNS
# OVCAR-3 ovarian = tested on: OVCAR-3 ovarian
# UACC-62 melanoma = tested on: UACC-62 melanoma
# KM12 colon = tested on: KM12 colon
# CCRF-CEM leukemia = tested on: CCRF-CEM leukemia
# OVCAR-4 ovarian = tested on: OVCAR-4 ovarian
# SF-539 CNS = tested on: SF-539 CNS
# IGROV1 ovarian = tested on: IGROV1 ovarian
# SF-295 CNS = tested on: SF-295 CNS
# SK-MEL-2 melanoma = tested on: SK-MEL-2 melanoma
# DMS 114 small cell lung = tested on: DMS 114 small cell lung
# HCT-116 colon = tested on: HCT-116 colon
# CAKI-1 renal = tested on: CAKI-1 renal
# SF-268 CNS = tested on: SF-268 CNS
# UACC-257 melanoma = tested on: UACC-257 melanoma
# RPMI-8226 leukemia = tested on: RPMI-8226 leukemia
structure (smiles),measurement,setting,value
CCOC(=O)C1=C(C)N(Cc2ccccc2)C(C)=C(C(=O)OCC)C1c1ccccc1O,TGI,MALME-3M melanoma,73.2 µM
same,TGI,HCT-15 colon,> 100 µM
same,TGI,ACHN renal,> 100 µM
same,TGI,DMS 273 small cell lung,> 100 µM
same,TGI,SNB-75 CNS,> 100 µM
same,TGI,U251 CNS,> 100 µM
same,TGI,RXF-631 renal,> 100 µM
same,TGI,K-562 leukemia,> 100 µM
same,TGI,HL-60(TB) leukemia,58.6 µM
same,TGI,MOLT-4 leukemia,32.3 µM
same,TGI,HOP-92 NSCLC,50.6 µM
same,TGI,HOP-62 NSCLC,99.2 µM
same,TGI,NCI-H23 lung,57.7 µM
same,TGI,SK-OV-3 ovarian,> 100 µM
same,TGI,DLD-1 colon,> 100 µM
same,TGI,HT29 colon,> 100 µM
same,TGI,A549 NSCLC,> 100 µM
same,TGI,NCI-H226 lung,80.4 µM
same,TGI,SW-620 colon,> 100 µM
same,TGI,RXF 393 renal,60.2 µM
same,TGI,COLO 205 colon,31.4 µM
same,TGI,KM20L2 colon,> 100 µM
same,TGI,SK-MEL-5 melanoma,30.3 µM
same,TGI,SR leukemia,54.9 µM
same,TGI,A498 renal,91.4 µM
same,TGI,LOX IMVI melanoma,39.7 µM
same,TGI,SNB-19 CNS,> 100 µM
same,TGI,TK-10 renal,> 100 µM
same,TGI,OVCAR-5 ovarian,> 100 µM
same,TGI,LXFL 529 NSCLC,71 µM
same,TGI,HCC-2998 colon,> 100 µM
same,TGI,SN12C renal,> 100 µM
same,TGI,786-0 renal,> 100 µM
same,TGI,SK-MEL-28 melanoma,> 100 µM
same,TGI,NCI-H522 lung,74.5 µM
same,TGI,OVCAR-8 ovarian,> 100 µM
same,TGI,HOP-18 NSCLC,> 100 µM
same,TGI,M14 melanoma,> 100 µM
same,TGI,UO-31 renal,> 100 µM
same,TGI,EKVX NSCLC,95.9 µM
same,TGI,M19-MEL melanoma,75.7 µM
same,TGI,NCI-H460 lung,> 100 µM
same,TGI,XF 498 CNS,51.3 µM
same,TGI,OVCAR-3 ovarian,90.8 µM
same,TGI,UACC-62 melanoma,50.2 µM
same,TGI,KM12 colon,64.4 µM
same,TGI,CCRF-CEM leukemia,69.5 µM
same,TGI,OVCAR-4 ovarian,> 100 µM
same,TGI,SF-539 CNS,88.8 µM
same,TGI,IGROV1 ovarian,> 100 µM
same,TGI,SF-295 CNS,> 100 µM
same,TGI,SK-MEL-2 melanoma,52.7 µM
same,TGI,DMS 114 small cell lung,43.8 µM
same,TGI,HCT-116 colon,> 100 µM
same,TGI,CAKI-1 renal,> 100 µM
same,TGI,SF-268 CNS,> 100 µM
same,TGI,UACC-257 melanoma,70.7 µM
CCC(=O)OC[n+]1ccc2c(C)c3[nH]c4ccc(OC)cc4c3c(C)c2c1,TGI,MALME-3M melanoma,2.71 µM
same,TGI,ACHN renal,3.76 µM
same,TGI,K-562 leukemia,23.9 µM
same,TGI,HL-60(TB) leukemia,8.38 µM
same,TGI,RPMI-8226 leukemia,2.54 µM
same,TGI,DLD-1 colon,1.26 µM
same,TGI,HT29 colon,1.57 µM
same,TGI,TK-10 renal,2.92 µM
same,TGI,OVCAR-5 ovarian,1.75 µM
same,TGI,LXFL 529 NSCLC,1.57 µM
same,TGI,786-0 renal,1.73 µM
same,TGI,HOP-18 NSCLC,0.131 µM
same,TGI,M19-MEL melanoma,1.68 µM
same,TGI,CCRF-CEM leukemia,> 100 µM
same,TGI,IGROV1 ovarian,1.03 µM
same,TGI,HCT-116 colon,1.13 µM
